Reference: EP4782453A1 (Beyang Therapeutics Co., Ltd., priority 2023, dated 2025)
Like-named read-outs stand apart in the source and are kept apart here.

Experiments:
Menin-MLL = biological target: T1, Menin-MLL (Homo sapiens, UniProt O00255); assay: Inhibitory activity against Menin-MLL binding (fluorescence polarization); conditions: 150 nM His-Menin, 15 nM FITC-MLL, 25°C for 60 min
T1 construct: His-Menin (M1-L615 end); purchased BIORTUS BP9210
T1 sequence (O00255 1-615 isoform O00255-1): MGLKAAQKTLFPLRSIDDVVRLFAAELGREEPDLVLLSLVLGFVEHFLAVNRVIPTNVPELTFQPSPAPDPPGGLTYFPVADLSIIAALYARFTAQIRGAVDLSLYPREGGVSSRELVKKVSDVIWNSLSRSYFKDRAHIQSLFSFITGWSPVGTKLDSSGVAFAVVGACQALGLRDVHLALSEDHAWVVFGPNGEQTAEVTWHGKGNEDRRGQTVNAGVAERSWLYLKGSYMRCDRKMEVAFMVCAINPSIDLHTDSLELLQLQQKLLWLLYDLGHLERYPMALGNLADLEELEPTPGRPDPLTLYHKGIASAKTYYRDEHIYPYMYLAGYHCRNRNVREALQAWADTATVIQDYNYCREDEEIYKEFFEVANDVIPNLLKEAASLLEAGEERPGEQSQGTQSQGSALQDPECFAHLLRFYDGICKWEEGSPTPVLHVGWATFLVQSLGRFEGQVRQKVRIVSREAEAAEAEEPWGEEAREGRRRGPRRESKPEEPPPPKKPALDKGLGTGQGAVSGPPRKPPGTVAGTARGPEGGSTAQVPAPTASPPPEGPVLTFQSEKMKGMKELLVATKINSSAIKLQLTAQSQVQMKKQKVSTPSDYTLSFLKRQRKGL
Outline: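 His-Menin (M1-L615, 150 nM) preincubated with compound 15 min at 25 °C in HEPES pH 7.5, 50 mM NaCl, 1 mM DTT, 0.01% BSA, then 15 nM FITC-MLL4-43 peptide added for 60 min at 25 °C. Fluorescence polarization read; IC50 from 4-parameter logistic fit, duplicates.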

[1] = test system: MV-4-11 (carrying MLL-AF4); assay: Inhibition of proliferation of human tumor cells (Alamar Blue, 7 days), MV-4-11; assay type: cell-based; conditions: Homo sapiens, MV4-11, 168 h, MV-4-11 cells (carrying MLL-AF4), method calls the value GI50
Excerpt: Experimental Example 2: Evaluation of Inhibitory Activity of Compounds Against Proliferation of Human Tumor Cells
• Human acute lymphoblastic leukemia cells MV-4-11, purchased from American Type Culture Collection, Catalog Number: CRL-9591; • Human acute myeloid leukemia cells MOLM-13, purchased from COBIOER BIOSCIENCES CO., LTD, Catalog Number: CBP60678; • Human acute myeloid leukemia cells KG-1a, purchased from American Type Culture Collection, Catalog Number: CCL-246.1; • Inverted Microscope, purchased from Olympus Tokyo; • Countess™ Automated Cell Counter, purchased from Invitrogen, Model: C10281; and • Multilabel Reader, purchased from Bio-Tek, Model: Synergy HT.
MV-4-11 cells were cultured in an IMDM medium containing 10% fetal bovine serum, KG-a cells were cultured in an IMDM medium containing 20% fetal bovine serum, or MOLM-13 cells were cultured in an RPMI-1640 medium containing 20% fetal bovine serum, each supplemented with 100 U·mL^-1 penicillin and 100 µg·mL^-1 streptomycin. These cells were cultured at 37°C with 5% CO2. The suspensions of individual cell lines were prepared in their respective media and seeded into 96-well plates at a density of 4,000 cells/well for MV-4-11 and MOLM-13 cells, or 3,000 cells/well for KG-1a cells. On the day of the experiment, a compound stock solution was diluted in a 3-fold or 4-fold gradient using DMSO. Each gradient-diluted stock solution was then further diluted 250-fold with a complete medium to prepare a series of working solutions at different concentrations. Subsequently, 100 µL of working solution (containing a 2-fold concentration series of the test compound) was added to each well, with duplicate wells set up for each concentration.
Seven days after compound addition (on Day 7), an Alamar Blue assay reagent (MCE, HY-111391 / CS-0040317) was added to measure the fluorescence intensity in each well. Wells containing the cells in the growth medium supplemented with 0.1% DMSO (Day 7) served as high-read control wells. The readouts from the wells containing the cells in the growth medium supplemented with 0.1% DMSO on the day of compound addition (Day 0) served as low-reading control well. GraphPad Prism software was used to calculate the concentration required to inhibit 50% of cell proliferation (GI50), which serves as a cell proliferation inhibition activity index.

[2] = test system: MOLM-13 (carrying MLL-AF9); assay: Inhibition of proliferation of human tumor cells (Alamar Blue, 7 days), MOLM-13; assay type: cell-based; conditions: Homo sapiens, MOLM-13 cells (carrying MLL-AF9), method calls the value GI50
Outline: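 Seven-day continuous compound exposure in duplicate wells, with 0.1% DMSO vehicle. Proliferation is quantified by Alamar Blue fluorescence and expressed as GI50, using Day 0 readings as the low reference.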

[3] = Menin-MLL IC50, fluorescence polarization
[4] = fluorescence polarization, read-out: Menin-MLL IC50

| IC50 [1] | IC50 (Menin-MLL; [4]) | IC50 ([2]; 168 h) | SMILES | IC50 (Menin-MLL; [3]) | IC50 ([2]; MOLM-13, 168 h) |
| --- | --- | --- | --- | --- | --- |
| 5.4 nM | 4 nM | 25 nM | CCNC(=O)N1CCC(C(C)N2CC(c3cc(-c4ccc(F)cc4C(=O)N(CC)C(C)C)c4c(F)nc(C)n4c3)C2)CC1 (stereo not drawn) [Example 282, N-ethyl-4-{1-[3-(8-{2-[ethyl(isopropyl)aminoformyl]-4-fluorophenyl}-1-fluoro-3-methylimidazo[1,5-a]pyridin-6-yl)azacyclobutan-1-yl]ethyl}piperidin-1-formamide] |  |  |
| 26 nM | 17 nM | 45 nM | CNC(=O)N1CCC(CN2CC(c3cc(-c4ccc(F)cc4C(=O)N4CCOC[C@H]4C)c4c(F)nc(C)n4c3)C2)CC1 [Example 250] |  |  |
| 50 nM | 24 nM | 44 nM | Cc1nc(F)c2c(-c3ccc(F)cc3C(=O)N3CCOC[C@H]3C)cc(C3CN(CC4CCN(C(=O)CC#N)CC4)C3)cn12 [Example 249] |  |  |
| 5.2 nM | 4 nM | 24 nM | CCNC(=O)N1CCC(CN2CC(c3cc(-c4ccc(F)cc4C(=O)N(CC)C(C)C)c4cnc(C)n4c3)C2)CC1 [Example 290] |  |  |
| 42 nM | 31.5 nM | 200 nM | Cc1ncc2c(-c3ccc(F)cc3C(=O)N3CCOC[C@H]3C)cc(C3CN(CC4CCOCC4)C3)cn12 [Example 243, (3R)-4-[5-fluoro-2-(3-methyl-6-{1-[(oxacyclohexan-4-yl)methyl]azacyclobutan-3-yl}imidazo[1,5-a]pyridin-8-yl)benzoyl]-3-methylmorpholine] |  |  |
| 36 nM | 32.5 nM | 96 nM | Cc1nc(F)c2c(-c3ccc(F)cc3C(=O)N3CCOC[C@H]3C)cc(C3CN(CC4CCN(C(=O)C(F)F)CC4)C3)cn12 [Example 268] |  |  |
| 2.1 nM | 7.5 nM | 5.3 nM | Cc1nc(F)c2c(-c3ccc(F)cc3C(=O)N3[C@H](C)COC[C@H]3C)cc(C3CN(CC4CCN(C(=O)CC#N)CC4)C3)cn12 [Example 226] |  |  |
| 5.9 nM | 9.5 nM | 28 nM | Cc1nc(F)c2c(-c3ccc(F)cc3C(=O)N3[C@H](C)COC[C@H]3C)cc(C3CN(CC4CCN(C(=O)N5CC(F)(F)C5)CC4)C3)cn12 [Example 242] |  |  |
| 25 nM | 28 nM | 60 nM | CC(=O)N1CCC(CN2CC(c3cc(-c4ccc(F)cc4C(=O)N4CCOC[C@H]4C)c4c(F)nc(C)n4c3)C2)CC1 [Example 225] |  |  |
| 8.3 nM | 11 nM | 24 nM | Cc1nc(F)c2c(-c3ccc(F)cc3C(=O)N3CCOC[C@H]3C)cc(C3CN([C@@H](C)C4CCN(C(=O)C5(O)CC5)CC4)C3)cn12 [Example 278] |  |  |
| 5.8 nM | 11 nM | 14 nM | Cc1nc(F)c2c(-c3ccc(F)cc3C(=O)N3[C@H](C)COC[C@H]3C)cc(C3CN(CC4CCN(C(=O)c5cncnc5)CC4)C3)cn12 [Example 234] |  |  |

The remaining lines, values behind:

| SMILES | IC50 [1] | IC50 (Menin-MLL; [4]) | IC50 ([2]; 168 h) | IC50 (Menin-MLL; [3]) | IC50 ([2]; MOLM-13, 168 h) |
| --- | --- | --- | --- | --- | --- |
| CCS(=O)(=O)N[C@H]1CC[C@H](CN2CCC(c3cc(-c4ccc(F)cc4C(=O)N(CC(F)F)C(C)C)c4cnccn34)CC2)CC1 [Example 139, N-(2,2-difluoroethyl)-5-fluoro-N-(isopropyl)-2-[6-(1-{[(1r,4r)-4-ethanesulfonamidocyclohexyl]methyl}piperidin-4-yl)pyrrolo[1,2-a]pyrazin-8-yl]benzamide] | 44 nM |  |  | 42 nM | 96 nM |
| CO[C@H]1CCN([C@H]2C[C@@H](C(C(C)C)N3CC(c4cc(-c5ccc(F)cc5C(=O)N5CCOC[C@H]5C)c5cnn(C)c5c4)C3)C2)C1 (stereo partly drawn) [Example 196-2, 4-{4-fluoro-2-[(3R)-3-methylmorpholin-4-carbonyl]phenyl}-1-methyl-6-(1-{2-methyl-1-[(1s,3s)-3-[(3S)-3-methoxypyrrolidin-1-yl]cyclobutyl]propyl}azacyclobutan-3-yl)-1H-indazole] | 9.6 nM |  |  | 17 nM | 28 nM |
| Cc1cncc2c(-c3ccc(F)cc3C(=O)N3[C@H](C)COC[C@H]3C)cc(CC3CN(CC4CCOCC4)C3)n12 [Example 230] | 1 nM | 2 nM |  |  | 2.9 nM |
| C=C1C[C@@H]2CC[C@H]1[C@@H](C(=O)N1CC(c3cc(-c4ccc(F)cc4C(=O)N(CC(F)F)C(C)C)c4cnc(C)n4c3)C1)N2 [Example 121, N-(2,2-difluoroethyl)-5-fluoro-2-(3-methyl-6-{1-[(1S,3S,4R)-5-methylene-2-azabicyclo[2.2.2]octan-3-carbonyl]azacyclobutan-3-yl}imidazo[1,5-a]pyridin-8-yl)-N-(isopropyl)benzamide] | 42 nM | 23.5 nM | 128 nM |  |  |
| COC1CCN(CCC[C@H](C(C)C)N2CC(c3cc(-c4ccc(F)cc4C(=O)N4CCOC[C@H]4C)c4cnn(C)c4c3)C2)CC1 [Example 181-2, 4-{4-fluoro-2-[(3R)-3-methylmorpholin-4-carbonyl]phenyl}-6-{1-[(3R)-6-(4-methoxypiperidin-1-yl)-2-methylhexan-3-yl]azacyclobutan-3-yl}-1-methyl-1H-indazole] | 7.9 nM | 13.5 nM | 39 nM |  |  |
| COCCC(=O)N1CCC(CN2CC(c3cc(-c4ccc(F)cc4C(=O)N4[C@H](C)COC[C@H]4C)c4c(F)nc(C)n4c3)C2)CC1 [Example 223] | 8.1 nM | 15 nM | 19 nM |  |  |
| Cc1nc(F)c2c(-c3ccc(F)cc3C(=O)N3[C@H](C)COC[C@H]3C)cc(C3CN([C@H](C)C4CCOCC4)C3)cn12 [Example 209-1, (3R,5R)-4-[5-fluoro-2-(1-fluoro-3-methyl-6-{1-[(1R)-1-(oxacyclohexan-4-yl)ethyl]azacyclobutan-3-yl}imidazo[1,5-a]pyridin-8-yl)benzoyl]-3,5-dimethylmorpholine] | 12 nM | 29.5 nM | 21 nM |  |  |
| Cc1ncc2c(-c3ccc(F)cc3C(=O)N(CC(F)F)C(C)C)cc(C3CN(C(=O)[C@@H]4CCCCN4)C3)cn12 [Example 133] | 49 nM | 30 nM | 31 nM |  |  |
| Cc1nc(F)c2c(-c3ccc(F)cc3C(=O)N3[C@H](C)COC[C@H]3C)cc(C3CN(CC4CCN(C(=O)C5COC5)CC4)C3)cn12 [Example 216] | 22 nM | 23 nM | 32 nM |  |  |
| CCS(=O)(=O)N[C@@H]1CC[C@@H](CN2CC(c3cc(-c4ccc(F)cc4C(=O)N(CC(F)F)C(C)C)c4cnc(C)n4c3)C2)OC1 [Example 150, N-(2,2-difluoroethyl)-2-[6-(1-{[(2S,5R)-5-ethanesulfonamidooxacyclohexan-2-yl]methyl}azacyclobutan-3-yl)-3-methylimidazo[1,5-a]pyridin-8-yl]-5-fluoro-N-(isopropyl)benzamide] | 21 nM | 24.5 nM | 36 nM |  |  |
